US20240139211A1, “METHODS AND COMPOSITIONS FOR TREATING AMYOTROPHIC LATERAL SCLEROSIS” (Amylyx Pharmaceuticals, Inc., priority 2022, published 2024)

How the values were obtained:
OATP1B3 = OATP1B3 (Homo sapiens, UniProt Q9NPD5); assay: Substrate of OATP1B3, uptake in HEK293 cells
From the text: (§1) Vector-transfected HEK cells were used as a control.

MATE2K [1] = target: T1, MATE2K (Homo sapiens, UniProt Q86VL8); assay: Substrate of MATE2-K, uptake in HEK293 cells
From the text: as §1

Caco-2 cells = details: 1 and 10 μM (tauroursodeoxycholic acid: 10 μM)
in vitro = details: human, Caco-2
BSEP = BSEP (Homo sapiens, UniProt O95342); assay: Substrate of BSEP; details: test article 1 and 10 μM
Sequence of BSEP (O95342 whole entry): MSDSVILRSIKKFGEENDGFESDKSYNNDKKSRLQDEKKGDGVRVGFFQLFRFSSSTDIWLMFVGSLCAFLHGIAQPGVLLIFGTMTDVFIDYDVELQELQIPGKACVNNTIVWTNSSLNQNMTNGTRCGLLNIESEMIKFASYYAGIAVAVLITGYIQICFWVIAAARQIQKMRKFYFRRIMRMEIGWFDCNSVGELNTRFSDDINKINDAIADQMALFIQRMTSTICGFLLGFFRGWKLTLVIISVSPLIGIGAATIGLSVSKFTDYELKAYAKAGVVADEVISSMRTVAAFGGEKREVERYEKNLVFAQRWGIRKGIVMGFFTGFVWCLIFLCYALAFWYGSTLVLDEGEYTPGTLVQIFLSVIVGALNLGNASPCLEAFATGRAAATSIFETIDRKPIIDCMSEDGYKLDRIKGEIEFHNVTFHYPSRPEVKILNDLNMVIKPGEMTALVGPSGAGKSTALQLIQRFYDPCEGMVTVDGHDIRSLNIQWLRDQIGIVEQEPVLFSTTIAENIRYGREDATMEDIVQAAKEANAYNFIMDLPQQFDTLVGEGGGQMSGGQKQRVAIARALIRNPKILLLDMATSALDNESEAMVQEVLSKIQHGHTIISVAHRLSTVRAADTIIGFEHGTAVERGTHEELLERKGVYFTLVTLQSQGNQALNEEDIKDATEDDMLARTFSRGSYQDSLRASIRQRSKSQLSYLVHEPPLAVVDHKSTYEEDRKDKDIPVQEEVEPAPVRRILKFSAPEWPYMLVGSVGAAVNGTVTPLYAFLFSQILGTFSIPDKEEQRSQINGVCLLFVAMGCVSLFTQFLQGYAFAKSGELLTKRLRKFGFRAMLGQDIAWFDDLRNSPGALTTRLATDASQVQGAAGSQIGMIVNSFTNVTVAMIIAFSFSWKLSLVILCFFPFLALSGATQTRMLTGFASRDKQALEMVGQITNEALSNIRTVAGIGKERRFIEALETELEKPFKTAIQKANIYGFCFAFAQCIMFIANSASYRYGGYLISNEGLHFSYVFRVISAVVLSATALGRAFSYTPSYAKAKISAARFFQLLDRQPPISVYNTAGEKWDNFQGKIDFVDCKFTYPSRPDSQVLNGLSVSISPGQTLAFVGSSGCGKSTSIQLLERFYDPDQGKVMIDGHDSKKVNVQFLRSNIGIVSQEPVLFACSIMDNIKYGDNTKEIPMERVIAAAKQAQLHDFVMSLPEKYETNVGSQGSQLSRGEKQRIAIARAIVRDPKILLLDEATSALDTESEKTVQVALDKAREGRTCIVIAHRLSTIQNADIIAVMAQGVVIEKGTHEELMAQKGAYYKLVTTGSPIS

OCT2 = target: T2, OCT2 (Homo sapiens, UniProt O15244); assay: Inhibitor of OCT2, probe substrate uptake
T2 sequence (O15244 1-555): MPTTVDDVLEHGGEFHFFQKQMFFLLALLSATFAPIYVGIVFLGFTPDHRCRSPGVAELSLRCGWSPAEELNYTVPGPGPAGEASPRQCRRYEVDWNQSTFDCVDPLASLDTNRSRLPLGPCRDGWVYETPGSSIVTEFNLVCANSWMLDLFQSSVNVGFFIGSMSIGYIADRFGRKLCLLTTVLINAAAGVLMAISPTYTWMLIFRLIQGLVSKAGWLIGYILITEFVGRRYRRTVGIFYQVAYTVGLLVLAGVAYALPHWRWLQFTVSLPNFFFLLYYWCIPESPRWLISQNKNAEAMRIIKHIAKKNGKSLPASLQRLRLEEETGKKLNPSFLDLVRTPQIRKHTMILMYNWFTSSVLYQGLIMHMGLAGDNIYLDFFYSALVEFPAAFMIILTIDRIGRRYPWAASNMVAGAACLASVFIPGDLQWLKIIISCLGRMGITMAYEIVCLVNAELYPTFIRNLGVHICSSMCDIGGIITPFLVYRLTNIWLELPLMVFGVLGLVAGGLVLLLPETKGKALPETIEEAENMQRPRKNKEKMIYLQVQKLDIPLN

MATE2K [2] = target: T1, MATE2K; assay: Inhibitor of MATE2-K, probe substrate uptake; details: two concentrations per test article
P-gp = P-gp (Homo sapiens, UniProt P08183); assay: Inhibitor of P-gp, 3H-digoxin efflux in Caco-2 cells
Sequence of P-gp (P08183 whole entry): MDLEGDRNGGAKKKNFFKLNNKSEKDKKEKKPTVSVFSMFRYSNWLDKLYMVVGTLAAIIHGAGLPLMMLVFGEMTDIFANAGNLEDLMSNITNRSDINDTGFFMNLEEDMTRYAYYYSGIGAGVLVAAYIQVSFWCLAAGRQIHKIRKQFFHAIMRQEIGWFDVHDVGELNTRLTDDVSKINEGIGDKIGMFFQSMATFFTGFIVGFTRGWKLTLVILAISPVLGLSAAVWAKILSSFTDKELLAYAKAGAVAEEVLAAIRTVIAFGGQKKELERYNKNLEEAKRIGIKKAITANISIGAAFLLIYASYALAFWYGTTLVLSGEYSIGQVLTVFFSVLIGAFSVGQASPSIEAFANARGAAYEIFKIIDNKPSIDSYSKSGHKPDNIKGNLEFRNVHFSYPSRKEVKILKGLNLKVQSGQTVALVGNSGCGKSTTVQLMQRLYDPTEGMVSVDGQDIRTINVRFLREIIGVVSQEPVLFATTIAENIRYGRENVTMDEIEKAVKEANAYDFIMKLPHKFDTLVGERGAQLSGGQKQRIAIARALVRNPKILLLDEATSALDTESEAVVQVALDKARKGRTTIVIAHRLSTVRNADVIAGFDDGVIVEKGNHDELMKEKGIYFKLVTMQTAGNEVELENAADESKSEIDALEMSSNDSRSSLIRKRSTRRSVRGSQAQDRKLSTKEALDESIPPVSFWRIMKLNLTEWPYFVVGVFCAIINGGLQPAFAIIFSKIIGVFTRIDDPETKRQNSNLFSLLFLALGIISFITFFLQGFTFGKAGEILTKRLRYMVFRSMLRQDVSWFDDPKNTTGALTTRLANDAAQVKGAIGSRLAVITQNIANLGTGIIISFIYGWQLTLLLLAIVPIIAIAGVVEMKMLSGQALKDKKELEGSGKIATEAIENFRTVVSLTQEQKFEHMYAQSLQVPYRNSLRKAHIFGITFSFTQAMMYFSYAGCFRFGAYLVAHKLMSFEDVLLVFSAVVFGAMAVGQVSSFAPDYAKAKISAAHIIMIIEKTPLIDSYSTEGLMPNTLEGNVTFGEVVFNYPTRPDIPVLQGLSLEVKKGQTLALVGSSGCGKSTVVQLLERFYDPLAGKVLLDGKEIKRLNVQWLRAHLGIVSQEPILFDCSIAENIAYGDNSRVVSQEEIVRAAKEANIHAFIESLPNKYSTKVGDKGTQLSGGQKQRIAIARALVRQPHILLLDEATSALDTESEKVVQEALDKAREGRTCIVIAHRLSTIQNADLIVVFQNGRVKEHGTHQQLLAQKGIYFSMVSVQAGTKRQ

CYP1A2 mRNA = assay: CYP1A2 gene expression induction in hepatocyte cultures; details: Donor 1
CYP2B6 mRNA = assay: CYP2B6 gene expression induction in hepatocyte cultures; details: Donor 1
CYP3A4 mRNA = assay: CYP3A4 gene expression induction in hepatocyte cultures; details: gene expression and enzyme activity, three donors
BCRP = target: T3, BCRP (Homo sapiens, UniProt Q9UNQ0); assay: Inhibitor of BCRP, 3H-estrone-3-sulfate efflux in Caco-2 cells
T3 sequence (Q9UNQ0 1-655): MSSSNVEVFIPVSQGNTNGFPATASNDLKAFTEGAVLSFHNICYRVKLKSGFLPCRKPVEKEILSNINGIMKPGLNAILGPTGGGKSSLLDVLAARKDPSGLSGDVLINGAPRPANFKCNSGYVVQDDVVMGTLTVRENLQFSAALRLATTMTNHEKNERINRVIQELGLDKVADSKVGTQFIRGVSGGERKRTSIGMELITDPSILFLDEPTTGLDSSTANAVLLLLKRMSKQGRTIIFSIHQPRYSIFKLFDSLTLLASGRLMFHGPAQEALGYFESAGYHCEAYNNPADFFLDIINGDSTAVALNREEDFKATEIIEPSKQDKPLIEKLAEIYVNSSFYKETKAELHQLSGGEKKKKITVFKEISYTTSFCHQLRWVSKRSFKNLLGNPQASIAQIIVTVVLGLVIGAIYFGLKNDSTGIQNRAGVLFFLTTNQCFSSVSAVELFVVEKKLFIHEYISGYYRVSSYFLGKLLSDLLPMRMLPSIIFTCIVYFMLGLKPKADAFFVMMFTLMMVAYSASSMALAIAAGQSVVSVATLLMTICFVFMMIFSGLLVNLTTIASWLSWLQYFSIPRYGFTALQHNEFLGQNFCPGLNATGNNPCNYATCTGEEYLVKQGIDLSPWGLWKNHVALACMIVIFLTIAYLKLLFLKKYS

human hepatocytes = assay: Cytotoxicity of six test articles in hepatocyte cultures (MTS); details: Donor 1, 72±2 hours
[3] = two concentrations per test article
[4] = Caco-2, two concentrations per test article
[5] = two concentrations per test article, Caco-2 cells

Sequence of OATP1B3 (Q9NPD5 whole entry): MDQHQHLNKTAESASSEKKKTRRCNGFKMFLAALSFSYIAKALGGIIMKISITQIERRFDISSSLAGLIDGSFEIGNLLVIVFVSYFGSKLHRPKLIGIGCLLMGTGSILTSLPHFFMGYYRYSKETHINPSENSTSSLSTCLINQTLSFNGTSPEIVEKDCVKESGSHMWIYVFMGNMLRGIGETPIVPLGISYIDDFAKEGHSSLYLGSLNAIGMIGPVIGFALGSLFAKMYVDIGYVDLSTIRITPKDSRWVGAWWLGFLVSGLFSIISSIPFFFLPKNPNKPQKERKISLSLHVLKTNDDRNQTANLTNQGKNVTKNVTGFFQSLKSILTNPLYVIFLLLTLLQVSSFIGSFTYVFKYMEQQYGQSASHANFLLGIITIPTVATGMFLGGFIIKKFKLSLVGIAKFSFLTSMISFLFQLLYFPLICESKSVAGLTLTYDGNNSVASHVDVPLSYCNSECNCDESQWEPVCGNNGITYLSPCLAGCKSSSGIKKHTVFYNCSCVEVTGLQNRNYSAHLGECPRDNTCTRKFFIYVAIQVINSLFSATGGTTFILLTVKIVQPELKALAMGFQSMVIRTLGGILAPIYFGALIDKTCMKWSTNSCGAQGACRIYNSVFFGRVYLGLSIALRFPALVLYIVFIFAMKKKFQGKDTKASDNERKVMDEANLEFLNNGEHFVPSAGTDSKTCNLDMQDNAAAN
T1 sequence (Q86VL8 1-566 isoform Q86VL8-3): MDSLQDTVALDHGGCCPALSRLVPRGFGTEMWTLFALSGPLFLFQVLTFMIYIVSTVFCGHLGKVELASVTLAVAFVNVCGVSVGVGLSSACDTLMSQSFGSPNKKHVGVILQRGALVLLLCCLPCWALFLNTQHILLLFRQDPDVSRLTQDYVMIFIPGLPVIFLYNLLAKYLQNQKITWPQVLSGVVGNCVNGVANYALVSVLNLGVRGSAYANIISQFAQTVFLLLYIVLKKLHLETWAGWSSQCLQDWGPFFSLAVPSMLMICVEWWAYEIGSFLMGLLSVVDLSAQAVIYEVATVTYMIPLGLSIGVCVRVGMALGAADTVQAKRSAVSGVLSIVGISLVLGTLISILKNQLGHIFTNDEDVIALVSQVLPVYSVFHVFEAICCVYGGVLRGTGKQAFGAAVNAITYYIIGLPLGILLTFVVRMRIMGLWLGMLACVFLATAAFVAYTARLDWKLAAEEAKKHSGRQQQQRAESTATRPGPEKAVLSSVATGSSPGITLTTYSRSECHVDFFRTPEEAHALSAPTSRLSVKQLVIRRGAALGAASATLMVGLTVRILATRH

O=C(O)Cc1ccccc1 [Phenylacetic acid, phenylacetic acid]
Uptake in OATP1B3 cells (OATP1B3; 1 μM): 5.27 pmol/minute/mg protein | Net OATP1B3 uptake remaining with inhibitor (OATP1B3; 10 μM): 79.0% | Uptake in OATP1B3 cells (OATP1B3; 10 μM): 19.3 pmol/min/mg | Substrate of OATP1B3 (OATP1B3; 1 and 10 μM): identified as a substrate | Substrate of OATP1B3 (OATP1B3; test article 1 and 10 μM): Yes | Net MATE2-K uptake remaining with inhibitor (MATE2K [1]; 10 μM): 64.1% | Uptake in MATE2-K cells (MATE2K [1]; 10 μM): 84.2 pmol/min/mg | Substrate of MATE2-K (MATE2K [1]; 1 and 10 μM): identified as a substrate | Substrate of MATE2-K (MATE2K [1]; test article 1 and 10 μM): Yes | Permeability in Caco-2 cell assay (Caco-2 cells): high permeability | Papp A→B (in vitro): ≥ 26.1 ×10⁻⁶ cm/s | Papp B→A (in vitro): ≥ 16.9 ×10⁻⁶ cm/s | recovery (in vitro): ≥ 90.2% | Substrate of BSEP (BSEP): No | Uptake activity remaining, OCT2 (OCT2; 7500 μM): 24.5% | potency estimated from few doses (OCT2; read-out: Estimated IC50, OCT2, estimated from two concentrations): < 7.5 mM | Inhibition of OCT2 (OCT2; [3]): inhibited | Inhibitor of OCT2 (OCT2; [3]): Yes | Inhibition of MATE2-K (MATE2K [2]): did not inhibit | Inhibitor of MATE2-K (MATE2K [2]): No | Inhibitor of P-gp (P-gp; [4]): weak inhibitor | Remaining P-gp activity, % of the control (P-gp; higher test concentration): 75.6% | Remaining P-gp activity, % of the control (P-gp; lower test concentration): 85.9% | potency estimated from few doses (P-gp; read-out: Estimated IC50, P-gp, estimated from two concentrations, Caco-2 cells): > 7.5 mM | Inhibitor of P-gp (P-gp; [5]): Yes | Emax, CYP1A2 gene expression (CYP1A2 mRNA): 3.32 fold | Emax, CYP2B6 gene expression (CYP2B6 mRNA): 11.1 fold | Inducer of CYP3A4 (conclusion) (CYP3A4 mRNA): do not identify phenylacetic acid as an inducer of CYP3A4 | Inhibitor of BCRP (BCRP; [4]): not an inhibitor | Remaining BCRP activity, % of the control (BCRP; higher test concentration (UDCA: second assay)): 199% | Remaining BCRP activity, % of the control (BCRP; lower test concentration (UDCA: second assay)): 162% | Inhibitor of BCRP (BCRP; [5]): No | Concentrations at which not hepatotoxic (human hepatocytes): ≤ 500 µM
